The values below come from ChEMBL document CHEMBL5260848, “Recent advancements in the development of bioactive pyrazoline derivatives” (Eur J Med Chem, 2020).

One experiment relates to Mus musculus. Briefly: Antidiabetic activity against albino mouse assessed as reduction in blood glucose level at 0.2 mmol/Kg relative to control. The format is functional. Further details: scale not given: the % may be the effect or the level left.
Experiment [1] addresses T1, Carbonic anhydrase 1 (Homo sapiens, UniProt P00915). Briefly: Inhibition of human recombinant CA1.
The target in experiment [2] is T2, Carbonic anhydrase 2 (Homo sapiens, UniProt P00918). Briefly: Inhibition of human recombinant CA2.
For another experiment, the target named is Carbonic anhydrase 4 (Homo sapiens, UniProt P22748). As to the kind of experiment: Inhibition of human recombinant CA4.
Carbonic anhydrase 4, sequence (P22748 whole entry): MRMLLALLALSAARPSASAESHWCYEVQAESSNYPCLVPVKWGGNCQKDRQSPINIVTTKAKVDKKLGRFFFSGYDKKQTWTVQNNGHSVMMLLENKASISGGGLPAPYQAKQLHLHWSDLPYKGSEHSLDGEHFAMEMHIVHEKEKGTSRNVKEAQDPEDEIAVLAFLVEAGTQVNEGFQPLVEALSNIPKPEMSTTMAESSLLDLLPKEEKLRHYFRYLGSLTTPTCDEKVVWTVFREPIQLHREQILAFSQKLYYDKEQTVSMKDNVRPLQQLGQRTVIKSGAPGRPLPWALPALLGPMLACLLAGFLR
Experiment [3] addresses T3, Carbonic anhydrase 9 (Homo sapiens, UniProt Q16790).
A short description of experiment [4]: Cytotoxicity against human Panel NCI-58 (58 carcinoma cell lines) cells. The format is functional.
Another experiment concerns Aspergillus clavatus. As to the kind of experiment: Antifungal activity against Aspergillus clavatus. The format is functional.
Experiment [5] relates to Candida albicans. Briefly: Antifungal activity against Candida albicans. The format is functional.
The test system of the next experiment is Aspergillus niger. As to the kind of experiment: Antifungal activity against Aspergillus niger. The format is functional.
For another experiment, the system named is Staphylococcus aureus. As to the kind of experiment: microbe, parasite or virus in culture.
For experiment [6], the target named is T1, Carbonic anhydrase 1.
For experiment [7], the target named is T3, Carbonic anhydrase 9. As to the kind of experiment: Inhibition of human CA9.
The target of experiment [8] is T2, Carbonic anhydrase 2.
The nature of experiment [9]: Antioxidant activity assessed as DPPH radical scavenging activity. The format is functional.
In another experiment the test system is Ca9-22. As to the kind of experiment: Cytotoxicity against human Ca9-22 cells assessed as reduction in cell viability incubated for 48 hrs by MTT assay. The format is functional. (Tetrazolium assays rely on reduction of a dye to a coloured formazan, in cell work by metabolically active cells.)
A further experiment relates to HSC-2. As to the kind of experiment: Cytotoxicity against human HSC-2 cells assessed as reduction in cell viability incubated for 48 hrs by MTT assay. The format is functional.
The subject of the next experiment is HSC-3. As to the kind of experiment: Cytotoxicity against human HSC-3 cells assessed as reduction in cell viability incubated for 48 hrs by MTT assay. The format is functional.
Experiment [10] is described as follows: Cytotoxicity against human HGF cells assessed as reduction in cell viability incubated for 48 hrs by MTT assay. The format is functional.
Experiment [11] is described as follows: Cytotoxicity against human HPLF cells assessed as reduction in cell viability incubated for 48 hrs by MTT assay. The format is functional.
A short description of experiment [12]: Cytotoxicity against human HPC cells assessed as reduction in cell viability incubated for 48 hrs by MTT assay. The format is functional.
Experiment [13] deals with T3, Carbonic anhydrase 9. As to the kind of experiment: Inhibition of human CA9 preincubated for 15 mins by phenol red dye based stopped flow CO2 hydration assay.
For the next experiment, the target named is Carbonic anhydrase 12 (Homo sapiens, UniProt O43570). Briefly: Inhibition of human CA12 preincubated for 15 mins by phenol red dye based stopped flow CO2 hydration assay.
Carbonic anhydrase 12, sequence (O43570 whole entry): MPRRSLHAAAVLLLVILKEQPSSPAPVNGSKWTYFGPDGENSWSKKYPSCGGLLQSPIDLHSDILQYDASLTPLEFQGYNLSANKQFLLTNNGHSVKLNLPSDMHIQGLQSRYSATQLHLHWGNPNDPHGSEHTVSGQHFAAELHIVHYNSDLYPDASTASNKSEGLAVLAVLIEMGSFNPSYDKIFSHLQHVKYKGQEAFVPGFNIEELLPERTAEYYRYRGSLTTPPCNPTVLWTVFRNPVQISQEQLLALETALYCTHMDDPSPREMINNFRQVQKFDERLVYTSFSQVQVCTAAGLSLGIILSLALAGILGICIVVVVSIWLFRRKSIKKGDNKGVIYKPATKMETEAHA
The next experiment addresses Acetylcholinesterase (Homo sapiens, UniProt P22303).
For experiment [14], the system named is Candida albicans. As to the kind of experiment: Antifungal activity against Candida albicans by agar dilution method. The format is functional. Background: In agar dilution, organisms are placed on agar that contains the substance at set levels.
Experiment [15] concerns Candida albicans. Briefly: Antifungal activity against Candida albicans assessed as reduction in microbial growth. The format is functional.
In a further experiment the test system is Cryptococcus neoformans. As to the kind of experiment: Antifungal activity against Cryptococcus neoformans assessed as reduction in microbial growth. The format is functional.
A further experiment has as its system MCF7. As to the kind of experiment: Cytotoxicity against human MCF7 cells. The format is functional, cell-based.

The structures appear in SMILES notation. Converted amounts (≈) assume the structure as drawn. Counter-ions that a name gives are not always drawn.

T1 sequence (P00915 whole entry): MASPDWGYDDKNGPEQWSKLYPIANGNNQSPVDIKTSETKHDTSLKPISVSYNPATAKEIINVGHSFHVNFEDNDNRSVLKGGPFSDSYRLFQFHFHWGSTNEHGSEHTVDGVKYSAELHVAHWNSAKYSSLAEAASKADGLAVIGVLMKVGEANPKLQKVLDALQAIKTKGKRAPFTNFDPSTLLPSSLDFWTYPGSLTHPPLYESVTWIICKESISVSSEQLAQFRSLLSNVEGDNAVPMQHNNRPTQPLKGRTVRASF
Acetylcholinesterase, sequence (P22303 whole entry): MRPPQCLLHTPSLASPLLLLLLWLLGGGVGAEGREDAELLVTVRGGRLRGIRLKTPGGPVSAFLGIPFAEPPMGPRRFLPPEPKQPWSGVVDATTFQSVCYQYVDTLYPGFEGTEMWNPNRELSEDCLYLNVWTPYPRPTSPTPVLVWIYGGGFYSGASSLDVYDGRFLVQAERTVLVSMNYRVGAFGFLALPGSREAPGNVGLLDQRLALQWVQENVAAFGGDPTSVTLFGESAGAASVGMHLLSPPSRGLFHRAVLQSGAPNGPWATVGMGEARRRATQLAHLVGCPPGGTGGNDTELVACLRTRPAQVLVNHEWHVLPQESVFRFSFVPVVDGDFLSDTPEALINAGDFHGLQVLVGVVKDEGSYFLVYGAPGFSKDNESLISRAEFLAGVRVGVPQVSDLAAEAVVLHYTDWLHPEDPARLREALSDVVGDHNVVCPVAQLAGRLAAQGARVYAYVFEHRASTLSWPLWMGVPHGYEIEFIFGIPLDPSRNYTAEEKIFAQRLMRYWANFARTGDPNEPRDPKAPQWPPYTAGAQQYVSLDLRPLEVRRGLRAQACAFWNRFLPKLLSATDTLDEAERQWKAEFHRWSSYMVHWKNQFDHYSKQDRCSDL

Take `Cc1ccc(C2=NN(c3ccc(S(=O)(=O)NC(=O)Nc4ccc(Cl)cc4)cc3)C(c3ccc(F)cc3)C2)cc1` (centres undefined): in the experiment on Mus musculus, the Activity is given as 16%.
On to `COc1ccc(C2=NN(C(C)=O)C(c3ccc(OS(N)(=O)=O)cc3)C2)cc1` (centres undefined), for which the inhibition constant Ki on Carbonic anhydrase 1 [1] is 2460 nM; at Carbonic anhydrase 2 [2] it was 0.4 nM; at Carbonic anhydrase 4, 17.7 nM; on Carbonic anhydrase 9 [3], 14.8 nM.
As to `COc1cccc2c1C(=O)c1c(O)c3c(c(O)c1C2=O)C[C@@](O)(C(=O)CO)C[C@@H]3O[C@H]1C[C@H](N)[C@H](O)[C@H](C)O1` [DOXORUBICIN HYDROCHLORIDE], in experiment [4], the 50% growth inhibitory concentration (GI50) was found to be 20 nM.
For `O=C(c1ccncc1)N1N=C(c2ccc(Br)cc2)CC1c1cc2ccccc2nc1Cl` (centres undefined), the results for the MIC in the experiment with Aspergillus clavatus, in the experiment with Candida albicans [5] and in the experiment with Aspergillus niger were 50 µg/mL (≈ 102 µM), 12.5 µg/mL (≈ 25.4 µM) and 12.5 µg/mL (≈ 25.4 µM), respectively.
As to `O=C(NC1CCCCC1)NS(=O)(=O)c1ccc(N2N=C(c3ccc(Br)cc3)CC2c2ccc(F)cc2)cc1` (centres undefined), the Activity in the experiment with Mus musculus is 16%.
Consider `COC(=O)C1N=NN(CC(=O)N2N=C(c3ccccc3)CC2c2ccc(OC)cc2)C1C(=O)OC` (centres undefined), for which the MIC against Staphylococcus aureus was 3.9 µg/mL (≈ 8.13 µM).
For `NS(=O)(=O)c1ccc(C(=O)N2N=C(c3ccccc3)CC2c2ccc(Cl)cc2)cc1` (centres undefined), the values for the Ki at Carbonic anhydrase 1 [6], at Carbonic anhydrase 9 [7] and on Carbonic anhydrase 2 [8] were 87.8 nM, 5.5 nM and 31.7 nM, respectively.
Consider `COc1ccc2c(c1)cc(/C=C/C(=O)c1cc(Br)ccc1O)c1nnnn12`, for which, in [9], the IC50 turned out to be 25.4 µg/mL (≈ 59.7 µM).
On to `NS(=O)(=O)c1ccc(N2N=C(c3ccc(O)cc3)CC2c2ccc(Br)cc2)cc1` (centres undefined), for which the cytotoxic concentration (CC50) (with Ca9-22; in the experiment with HSC-2; in the experiment with HSC-3; in experiment [10]; in [11]; in experiment [12]) was 39300 nM in each case. For the same molecule, the Ki at Carbonic anhydrase 9 [13] came out at 53.5 nM; on Carbonic anhydrase 12 it was 6.2 nM.
As for `O=C(c1ccncc1)N1N=C(c2ccccc2Cl)CC1c1cc2ccccc2nc1Cl` (centres undefined), the MIC against Aspergillus clavatus, against Candida albicans [5] and against Aspergillus niger was 12.5 µg/mL (≈ 27.9 µM) in each case.
Turning to `COc1ccc(C2CC(c3ccccc3)=NN2c2ccc(S(N)(=O)=O)cc2)c(OC)c1` (centres undefined), the affinity at Acetylcholinesterase corresponds to a Ki of 37.7 nM.
For the molecule `NS(=O)(=O)c1ccc(N2N=C(c3ccc(O)cc3)CC2c2ccccc2)cc1` (centres undefined), the inhibition constant Ki stood at 317 nM at Carbonic anhydrase 1 [6], 53.5 nM on Carbonic anhydrase 9 [13], 6.2 nM at Carbonic anhydrase 12 and 412 nM on Carbonic anhydrase 2 [8]. The CC50 (with Ca9-22; with HSC-2; in the experiment on HSC-3; in [10]; in [11]; in experiment [12]) was 39300 nM in each case.
`COc1ccc(C2CC(c3ccc(Cl)cc3)=NN2c2ccc(S(N)(=O)=O)cc2)c(OC)c1` (centres undefined): the Ki at Acetylcholinesterase is 37.7 nM.
`CC(=O)N1N=C(c2ccc(OS(N)(=O)=O)cc2)CC1c1ccc(C(F)(F)F)cc1` (centres undefined): the inhibitory constant (Ki) on Carbonic anhydrase 1 [1] is 2460 nM; on Carbonic anhydrase 2 [2], 0.4 nM; at Carbonic anhydrase 4, 17.7 nM; on Carbonic anhydrase 9 [3], 14.8 nM.
Consider `COc1ccc(C2CC(c3ccc(F)cc3)=NN2c2ccc(S(N)(=O)=O)cc2)c(OC)c1` (centres undefined), for which the inhibitory constant (Ki) on Acetylcholinesterase was determined as 37.7 nM.
For the molecule `COc1ccc2cc(C3CC(c4cc(Br)ccc4O)=NO3)c3nnnn3c2c1` (centres undefined), the MIC with Candida albicans [14] worked out at 25 µg/mL (≈ 56.8 µM). Further, in experiment [9], the half-inhibitory concentration (IC50) amounted to 23.3 µg/mL (≈ 52.9 µM).
`Cc1ccc2cc(C3CC(c4cc(Br)ccc4O)=NN3)c3nnnn3c2c1` (centres undefined) displayed an MIC against Candida albicans [14] of 25 µg/mL (≈ 59.1 µM).
Turning to `COc1cc(C2CC(c3cccc(Nc4ccnc5cc(Cl)ccc45)c3)=NN2c2ccc(Cl)cc2)cc(OC)c1OC` (centres undefined), the MIC50 in the experiment on Candida albicans [15] and in the experiment with Cryptococcus neoformans was 3.9 µg/mL throughout. Also, the GI50 in experiment [4] was under 1000 nM.
`Cc1ccc(C2=NN(c3ccc(S(=O)(=O)NC(=O)Nc4ccccc4)cc3)C(c3ccc(F)cc3)C2)cc1` (centres undefined): the Activity in the experiment with Mus musculus was 16%.
Consider `COc1ccc(C2=NN(C(=O)c3ccc(S(N)(=O)=O)cc3)C(c3ccc(OC)c(OC)c3)C2)c(OC)c1` (centres undefined), for which the results for the Ki at Carbonic anhydrase 1 [6] and on Carbonic anhydrase 9 [7] were 2670 nM and 5.5 nM, respectively.
As to `COC(=O)C1N=NN(CC(=O)N2N=C(c3nnn(Cc4ccccc4)c3C)CC2c2cccs2)C1C(=O)OC` (centres undefined), the MIC with Staphylococcus aureus turned out to be 3.9 µg/mL (≈ 7.08 µM).
Molecule `C[C@]12CC[C@@H]3c4ccc(O)cc4CC[C@H]3[C@@H]1CC1C2=NN(c2ccccc2)C1c1cccs1` (some centres undefined) returned a concentration for half-maximal inhibition (IC50) with MCF7 of 43 nM.

For orientation: Ki means the dissociation constant of the complex between target and ligand, obtained from inhibition or displacement. As usually defined, the GI50 is the concentration that inhibits growth by half. The IC50 is the concentration that inhibits the measured activity by half. What is called CC50 is the concentration at which the toxic effect on the cells reaches its halfway point. As usually defined, the MIC50 is the lowest concentration that inhibits either 50% of growth or 50% of the strains tested, depending on the study.
